Measurements reported in patent US7695918B2 (priority 2002, dated 2010).
Where two headings read alike, the source gives them in different places.

Key:
[1] = tested on: PrP^sc
[2] = biological target: recPrP (recombinant protein prion) (Homo sapiens, UniProt P04156); conditions: recPrP 42 μM diluted with an equivalent volume of streptomycin 1 g/ml; dried on mica
[3] = tested on: PrP^sc; format: binding, bovine
[4] = tested on: PrP^sc; conditions: precipitates, ESB bovine brain homogenate
[5] = biological target: PrP^sc (Ovis aries, UniProt P23907); format: binding; conditions: 2000 μg streptomycin; PrP^sc from 920 μg sheep brain afflicted with trembling; from increase of apparent molecular weight
[6] = biological target: protein prion (Homo sapiens, UniProt P04156); format: binding; conditions: LCR
[7] = tested on: protein prion; format: binding, human; conditions: 50 μg/ml final concentration streptomycin; LCR(+) at any proteinase K concentration, LCR(−) only without digestion

PrP^sc (Ovis aries, UniProt P23907), sequence (P23907 25-233 limits assumed): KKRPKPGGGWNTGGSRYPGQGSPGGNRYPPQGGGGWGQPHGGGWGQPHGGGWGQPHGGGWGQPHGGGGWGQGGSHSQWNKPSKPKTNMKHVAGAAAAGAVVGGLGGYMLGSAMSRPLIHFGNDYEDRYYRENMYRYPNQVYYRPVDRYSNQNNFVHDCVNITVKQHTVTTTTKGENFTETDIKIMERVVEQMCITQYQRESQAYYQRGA

In the case of `[H]/N=C(/N)N[C@H]1[C@H](O)[C@@H](O)[C@H](O[C@@H]2O[C@@H](C)[C@](O)(C=O)[C@H]2O[C@@H]2O[C@@H](CO)[C@H](O)[C@@H](O)[C@@H]2NC)[C@@H](N/C(N)=N\[H])[C@@H]1O` [streptomycin], the “detection of PrP^sc compared with the reference technique” value [1] is reported as “permits better detection of cases that are slightly positive”, the “surface organization of the film of the recPrP/streptomycin mixture” value [2] is reported as “amorphous surface” and the “precipitation of PrP^sc” value ([3]; 20 μl streptomycin at 1 g/ml, 100 μl bovine brain suspension after proteinase K, second hour at 37° C.) is reported as “totally precipitated the PrP^sc”. For the same molecule, the “location of PrP^sc bands (supernatant or bottom)” value ([3]; brain sample diluted 1/25, proteinase K and streptomycin added simultaneously, one hour incubation) was “in the bottom in the presence of any concentration of streptomycin”, the “dilution down to which PrP^sc is detectable” value ([4]; 5 μl streptomycin, without streptomycin the limit is 1/16) was 1/128 and the “dilution down to which PrP^sc is detectable” value ([4]; 10 μl streptomycin, most diluted sample tested) was 1/256. For the same molecule, the “number of streptomycin molecules attached per band of PrP^sc” value [5] was 10 to 12 molecules of streptomycin per band of PrP^sc, the “apparent size of the protein prion band after streptomycin treatment” value ([6]; 0.1 g/ml streptomycin, no proteinase K digestion) was “approximately 50 kDa” and the “binding of streptomycin to the protein prion” value ([6]; absence of digestion by proteinase K, streptomycin 0.1 and 0.2 g/ml) was “bonds well to the protein prion”. For the same molecule, the “apparent molecular mass of the band observed after streptomycin treatment” value [7] was “approximately 35 kDa”.
